Data on four compounds can be found in patent EP1632243A1 (priority 2003, dated 2004).

In brackets after ≈: the same amount, converted by molar mass. Like-named read-outs stand apart in the source and are kept apart here. Residues, ends and D or L forms follow the SMILES beside them.

One data set relates to MT-4 cells. Description: Cytotoxicity to MT-4 cells, MTT method. Type of data set: cell-based. The conditions noted are these: 12000ng/ml to 24ng/ml, 6 days. The procedure: Then test drugs were added. […] Cell growth was subsequently determined by the MTT method.
Background: Tetrazolium dyes change colour on reduction, which living cells bring about.

A further data set is described as follows: in vitro. The note with it: human, 293 cells.

As for `CC(C)C[C@H](NC(=O)[C@H](CCCCN)NC(=O)[C@@H](N)Cc1ccc(O)cc1)C(=O)N1CCC[C@H]1C(=O)NCC(=O)N[C@@H](Cc1c[nH]cn1)C(=O)N[C@@H](Cc1c[nH]cn1)C(=O)N[C@@H](Cc1c[nH]cn1)C(=O)N[C@@H](Cc1c[nH]cn1)C(=O)N[C@@H](Cc1ccc(O)cc1)C(=O)N[C@@H](CCCNC(=N)N)C(=O)N1CCC[C@H]1C(=O)O` [AP-9] (H-YKLPGHHHHYRP-OH; N-terminus and C-terminus assumed), the cell growth entry with MT-4 cells is “not affected”. Moreover, in the data set on No.04 coronavirus, the “inhibition of coronavirus in 293 cell cultures” value (from here on “inhibition of coronavirus”) is listed as “capable of inhibiting coronavirus” and the “treatment index (TI)” value is on record as 32. Moreover, in the data set with No.04 coronavirus (24 h), the “half-inhibitory concentration (IC50)” value was 15.6 ± 0 µg/mL and the “minimum inhibitory concentration (MIC)” value turned out to be 31.3 ± 0 µg/mL (≈ 0.0203 mM).

Take “AP-1: high-affinity peptide antagonist targeting HAb18G/CD147, amino acid sequence SEQ ID NO:3 (MTHDPVISLPTT)”: the cell growth result in the data set with MT-4 cells was “not affected”. In addition, in the data set with No.04 coronavirus, the “half-inhibitory concentration (IC50)” value was 31.25 ± 0 µg/mL, the “inhibition of coronavirus” value is “capable of inhibiting coronavirus”, the “minimum inhibitory concentration (MIC)” value is 62.25 ± 0 µg/mL and the “treatment index (TI)” value turned out to be 16.

In the data set “in vitro”, `Nc1nc(O)c2ncn(COC(CO)CO)c2n1` [Ganciclovir, ganciclovir] yielded a CC50 at 144 h greater than 6000 µg/mL and an MNTC at 144 h greater than 6000 µg/mL.

On to “AP-6: high-affinity peptide antagonist targeting HAb18G/CD147, amino acid sequence SEQ ID NO:8 (YPFHHKHWHRPN)”, for which, in the data set with MT-4 cells, the cell growth entry is listed as “not affected”. Besides, in the data set on No.04 coronavirus, the “half-inhibitory concentration (IC50)” value is 31.25 ± 0 µg/mL, the “inhibition of coronavirus” value is “capable of inhibiting coronavirus”, the “minimum inhibitory concentration (MIC)” value was 62.25 ± 0 µg/mL and the “treatment index (TI)” value was 16.

By CC50 is commonly meant the concentration giving 50% cytotoxicity.
